Data: patent US9695155B2, “Herbicidal substituted pyrimidinyloxy benzene compounds” (E. I. DU PONT DE NEMOURS AND COMPANY, priority 2013, dated 2017)

Key:
bluegrass = test: Test D preemergence; assay type: in vivo, Poa annua; conditions: Poa annua, pre-emergence
Outline: (§1)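 Solvent/surfactant formulations are sprayed pre (silt loam) or post (1–4 leaf plants, 2–18 cm). Plants stay 7–21 days in controlled conditions before a visual 0–100 score is given.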

blackgrass = test: Test D preemergence; assay type: in vivo, Alopecurus myosuroides; conditions: Alopecurus myosuroides, pre-emergence
Outline: as §1

field violet = test: Test D preemergence; assay type: in vivo, Viola arvensis; conditions: Viola arvensis, pre-emergence
Outline: as §1

Italian ryegrass [1] = test: Test D preemergence; assay type: in vivo, Lolium multiflorum; conditions: Lolium multiflorum, pre-emergence
Outline: as §1

kochia = test: Test D preemergence; assay type: in vivo, Kochia scoparia; conditions: Bassia scoparia, pre-emergence
Outline: as §1

canarygrass = test: Test D postemergence; assay type: in vivo, Phalaris minor; conditions: Phalaris minor, post-emergence
Outline: as §1

galium = test: Test D postemergence; assay type: in vivo, Galium aparine; conditions: Galium, post-emergence
Outline: as §1

deadnettle = test: Test D postemergence; assay type: in vivo, Lamium amplexicaule; conditions: Lamium amplexicaule, post-emergence
Outline: as §1

Italian ryegrass [2] = test: Test D postemergence; assay type: in vivo, Lolium multiflorum; conditions: Lolium multiflorum, post-emergence
Outline: as §1

oilseed rape = test: Test D postemergence; assay type: in vivo, Brassica napus; conditions: Brassica napus, post-emergence
Outline: as §1

chamomile = test: Test D postemergence; assay type: in vivo, Matricaria inodora; conditions: Tripleurospermum inodorum, post-emergence
Outline: as §1

wild buckwheat = test: Test D postemergence; assay type: in vivo, Polygonum convolvulus; conditions: Fallopia convolvulus, post-emergence, Postemergence, scale 0 to 100 (0 no effect, 100 complete control), read-out: Plant response rating, Buckwheat, Wild
Outline: as §1

FC(F)(F)COc1cnn(-c2ccccc2Oc2ncc(Cl)cn2)c1 [Compound 138, 5-chloro-2-[2-[4-(2,2,2-trifluoroethoxy)-1H-pyrazol-1-yl]phenoxy]pyrimidine]
15%: pest or weed control at 125 g/ha (canarygrass; 125 g ai/ha, scale 0 to 100 (0 no effect, 100 complete control), read-out: Plant response rating, Canarygrass) | pest or weed control at 62 g/ha (deadnettle; 62 g ai/ha, scale 0 to 100 (0 no effect, 100 complete control), read-out: Plant response rating, Deadnettle)
65%: pest or weed control at 16 g/ha (wild buckwheat; 16 g ai/ha) | pest or weed control at 62 g/ha (wild buckwheat; 62 g ai/ha)
0%: pest or weed control at 16 g/ha (bluegrass; 16 g ai/ha, scale 0 (no effect) to 100 (complete control), read-out: Plant response rating, Bluegrass) | pest or weed control at 31 g/ha (bluegrass; 31 g ai/ha, scale 0-100, read-out: Plant response rating, Bluegrass) | pest or weed control at 62 g/ha (bluegrass; 62 g ai/ha, scale 0-100, read-out: Plant response rating, Bluegrass) | pest or weed control at 16 g/ha (blackgrass; 16 g ai/ha, scale 0 (no effect) to 100 (complete control), read-out: Plant response rating, Blackgrass) | pest or weed control at 31 g/ha (blackgrass; 31 g ai/ha, scale 0-100, read-out: Plant response rating, Blackgrass) | pest or weed control at 16 g/ha (Italian ryegrass [1]; 16 g ai/ha, scale 0 (no effect) to 100 (complete control), read-out: Plant response rating, Ryegrass, Italian) | pest or weed control at 31 g/ha (Italian ryegrass [1]; 31 g ai/ha, scale 0 (no effect) to 100 (complete control), read-out: Plant response rating, Ryegrass, Italian) | pest or weed control at 62 g/ha (Italian ryegrass [1]; 62 g ai/ha, scale 0-100, read-out: Plant response rating, Ryegrass, Italian) | pest or weed control at 31 g/ha (Italian ryegrass [2]; 31 g ai/ha, scale 0 to 100 (0 no effect, 100 complete control), read-out: Plant response rating, Ryegrass, Italian) | pest or weed control at 62 g/ha (Italian ryegrass [2]; 62 g ai/ha, scale 0 to 100 (0 no effect, 100 complete control), read-out: Plant response rating, Ryegrass, Italian) | pest or weed control at 16 g/ha (chamomile; 16 g ai/ha, scale 0-100, read-out: Plant response rating, Chamomile) | pest or weed control at 31 g/ha (chamomile; 31 g ai/ha, scale 0 to 100 (0 no effect, 100 complete control), read-out: Plant response rating, Chamomile) | pest or weed control at 62 g/ha (chamomile; 62 g ai/ha, scale 0 to 100 (0 no effect, 100 complete control), read-out: Plant response rating, Chamomile) | pest or weed control at 125 g/ha (chamomile; 125 g ai/ha, scale 0 to 100 (0 no effect, 100 complete control), read-out: Plant response rating, Chamomile)
80%: pest or weed control at 125 g/ha (wild buckwheat; 125 g ai/ha)
20%: pest or weed control at 16 g/ha (kochia; 16 g ai/ha, scale 0 (no effect) to 100 (complete control), read-out: Plant response rating, Kochia) | pest or weed control at 31 g/ha (kochia; 31 g ai/ha, scale 0-100, read-out: Plant response rating, Kochia)
10%: pest or weed control at 125 g/ha (bluegrass; 125 g ai/ha, scale 0-100, read-out: Plant response rating, Bluegrass) | pest or weed control at 125 g/ha (Italian ryegrass [1]; 125 g ai/ha, scale 0-100, read-out: Plant response rating, Ryegrass, Italian) | pest or weed control at 31 g/ha (canarygrass; 31 g ai/ha, scale 0 to 100 (0 no effect, 100 complete control), read-out: Plant response rating, Canarygrass) | pest or weed control at 62 g/ha (canarygrass; 62 g ai/ha, scale 0 to 100 (0 no effect, 100 complete control), read-out: Plant response rating, Canarygrass)
30%: pest or weed control at 125 g/ha (blackgrass; 125 g ai/ha, scale 0-100, read-out: Plant response rating, Blackgrass)
70%: pest or weed control at 16 g/ha (field violet; 16 g ai/ha, scale 0 (no effect) to 100 (complete control), read-out: Plant response rating, Field Violet) | pest or weed control at 62 g/ha (field violet; 62 g ai/ha, scale 0-100, read-out: Plant response rating, Field Violet) | pest or weed control at 16 g/ha (galium; 16 g ai/ha, scale 0-100, read-out: Plant response rating, Galium) | pest or weed control at 31 g/ha (galium; 31 g ai/ha, scale 0 to 100 (0 no effect, 100 complete control), read-out: Plant response rating, Galium) | plant injury at 16 g/ha (oilseed rape; 16 g ai/ha, scale 0-100, read-out: Plant response rating, Oilseed Rape) | plant injury at 31 g/ha (oilseed rape; 31 g ai/ha, scale 0 to 100 (0 no effect, 100 complete control), read-out: Plant response rating, Oilseed Rape) | pest or weed control at 31 g/ha (wild buckwheat; 31 g ai/ha)
55%: pest or weed control at 125 g/ha (kochia; 125 g ai/ha, scale 0-100, read-out: Plant response rating, Kochia)
25%: pest or weed control at 62 g/ha (blackgrass; 62 g ai/ha, scale 0-100, read-out: Plant response rating, Blackgrass) | pest or weed control at 31 g/ha (field violet; 31 g ai/ha, scale 0-100, read-out: Plant response rating, Field Violet) | pest or weed control at 125 g/ha (deadnettle; 125 g ai/ha, scale 0 to 100 (0 no effect, 100 complete control), read-out: Plant response rating, Deadnettle)
75%: pest or weed control at 125 g/ha (field violet; 125 g ai/ha, scale 0-100, read-out: Plant response rating, Field Violet) | pest or weed control at 62 g/ha (galium; 62 g ai/ha, scale 0 to 100 (0 no effect, 100 complete control), read-out: Plant response rating, Galium) | pest or weed control at 125 g/ha (galium; 125 g ai/ha, scale 0 to 100 (0 no effect, 100 complete control), read-out: Plant response rating, Galium) | plant injury at 62 g/ha (oilseed rape; 62 g ai/ha, scale 0 to 100 (0 no effect, 100 complete control), read-out: Plant response rating, Oilseed Rape) | plant injury at 125 g/ha (oilseed rape; 125 g ai/ha, scale 0 to 100 (0 no effect, 100 complete control), read-out: Plant response rating, Oilseed Rape)
35%: pest or weed control at 62 g/ha (kochia; 62 g ai/ha, scale 0-100, read-out: Plant response rating, Kochia)
5%: pest or weed control at 16 g/ha (canarygrass; 16 g ai/ha, scale 0-100, read-out: Plant response rating, Canarygrass) | pest or weed control at 16 g/ha (deadnettle; 16 g ai/ha, scale 0-100, read-out: Plant response rating, Deadnettle) | pest or weed control at 31 g/ha (deadnettle; 31 g ai/ha, scale 0 to 100 (0 no effect, 100 complete control), read-out: Plant response rating, Deadnettle) | pest or weed control at 16 g/ha (Italian ryegrass [2]; 16 g ai/ha, scale 0-100, read-out: Plant response rating, Ryegrass, Italian) | pest or weed control at 125 g/ha (Italian ryegrass [2]; 125 g ai/ha, scale 0 to 100 (0 no effect, 100 complete control), read-out: Plant response rating, Ryegrass, Italian)
